According to US20120225062A1 (priority 2011, published 2012):

Tests used:
[1] = molecular target: Pim 3 (Homo sapiens, UniProt Q86V86); assay: Pim 3 AlphaScreen assay (high ATP)
[2] = molecular target: Pim 2 (Homo sapiens, UniProt Q9P1W9); assay: Pim 2 AlphaScreen assay (high ATP)
[3] = test system: KMS11 (human myeloma cell line); assay: Cell Proliferation Assay (CellTiter-Glo, 3 days); format: cell-based; conditions: KMS-11, 72 h, KMS11-luc cells
In short: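 KMS11 myeloma cells, 2000 per well in IMDM with 10% FBS, exposed to compound for 3 days at 37° C. Viability read by CellTiter-Glo luminescence; EC50 derived.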

[4] = molecular target: Pim 1 (Homo sapiens, UniProt P11309); assay: Pim 1 AlphaScreen assay (high ATP)
Pim 1, sequence (P11309 whole entry): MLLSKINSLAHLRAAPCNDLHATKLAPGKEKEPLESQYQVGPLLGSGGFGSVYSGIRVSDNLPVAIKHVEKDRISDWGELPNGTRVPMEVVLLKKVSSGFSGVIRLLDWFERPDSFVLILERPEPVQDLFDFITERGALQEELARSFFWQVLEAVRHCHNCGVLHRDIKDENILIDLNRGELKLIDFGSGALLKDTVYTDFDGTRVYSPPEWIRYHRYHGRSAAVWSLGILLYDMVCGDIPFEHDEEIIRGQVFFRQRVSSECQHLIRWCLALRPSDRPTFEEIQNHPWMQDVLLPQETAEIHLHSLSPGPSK

Pim 2, sequence (Q9P1W9 whole entry): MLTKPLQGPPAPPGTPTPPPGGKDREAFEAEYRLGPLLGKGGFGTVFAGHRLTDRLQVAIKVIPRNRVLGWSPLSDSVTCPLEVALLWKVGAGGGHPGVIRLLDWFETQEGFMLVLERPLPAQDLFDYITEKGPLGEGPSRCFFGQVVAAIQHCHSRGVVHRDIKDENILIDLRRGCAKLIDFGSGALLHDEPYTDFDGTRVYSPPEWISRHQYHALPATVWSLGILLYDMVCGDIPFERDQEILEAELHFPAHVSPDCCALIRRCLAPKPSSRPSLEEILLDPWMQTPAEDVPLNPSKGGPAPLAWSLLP

Compound	IC50 [1] [nM]	IC50 [2] [nM]	EC50 [3] [nM]	IC50 [4] [nM]
C[C@@H]1C[C@H](N)C[C@H](c2ccncc2NC(=O)c2ccc(F)c(-c3c(F)cc([C@H](O)CO)cc3F)n2)C1 [Example 231, N-(4-((1R,3S,5S)-3-amino-5-methylcyclohexyl)pyridin-3-yl)-6-(4-((S)-1,2-dihydroxyethyl)-2,6-difluorophenyl)-5-fluoropicolinamide]	1.53	2.6	46	0.04
C[C@@H]1C[C@H](N)C[C@H](c2ccncc2NC(=O)c2ccc(F)c(-c3c(F)cc(OCC4(C#N)CCOCC4)cc3F)n2)C1 [Example 185, N-(4-((1R,3S,5S)-3-amino-5-methylcyclohexyl)pyridin-3-yl)-6-(4-((4-cyanotetrahydro-2H-pyran-4-yl)methoxy)-2,6-difluorophenyl)-5-fluoropicolinamide]	2.44	4.04	632	0.02
COC(C)(C)c1cc(F)c(-c2nc(C(=O)Nc3cnccc3[C@@H]3C[C@H](C)C[C@H](N)C3)ccc2F)c(F)c1 [Example 49, N-(4-((1R,3S,5S)-3-amino-5-methylcyclohexyl)pyridin-3-yl)-6-(2,6-difluoro-4-(2-methoxypropan-2-yl)phenyl)-5-fluoropicolinamide]	1.86	2.67	53	0.03
C[C@@H]1C[C@H](N)C[C@H](c2ccncc2NC(=O)c2ccc(F)c(-c3c(F)cc(C4(C#N)CCOCC4)cc3F)n2)C1 [Example 170, N-(4-((1R,3S,5S)-3-amino-5-methylcyclohexyl)pyridin-3-yl)-6-(4-(4-cyanotetrahydro-2H-pyran-4-yl)-2,6-difluorophenyl)-5-fluoropicolinamide]	4.54	2.83	84	0.03
C[C@H]1C[C@@H](c2ccncc2NC(=O)c2ccc(F)c(-c3c(F)cc(OCC(C)(C)O)cc3F)n2)C[C@@H](N)[C@@H]1O [Example 51, N-(4-((1R,3R,4R,5S)-3-amino-4-hydroxy-5-methylcyclohexyl)pyridin-3-yl)-6-(2,6-difluoro-4-(2-hydroxy-2-methylpropoxy)phenyl)-5-fluoropicolinamide]	1.02	4.34	30	0.03
C[C@H]1C[C@@H](c2ccncc2NC(=O)c2ccc(F)c(-c3c(F)cc(OC4COC4)cc3F)n2)C[C@@H](N)[C@@H]1O [Example 47, N-(4-((1R,3R,4R,5S)-3-amino-4-hydroxy-5-methylcyclohexyl)pyridin-3-yl)-6-(2,6-difluoro-4-(oxetan-3-yloxy)phenyl)-5-fluoropicolinamide]	1.32	6.33	97	0.04
C[C@@H]1C[C@H](N)C[C@H](c2ccncc2NC(=O)c2ccc(F)c(-c3c(F)cc(OCCN4CCCC4=O)cc3F)n2)C1 [Example 132, N-(4-((1R,3S,5S)-3-amino-5-methylcyclohexyl)pyridin-3-yl)-6-(2,6-difluoro-4-(2-(2-oxopyrrolidin-1-yl)ethoxy)phenyl)-5-fluoropicolinamide]	1.1	4.78	206	0.02
C[C@H]1C[C@@H](c2ccncc2NC(=O)c2ccc(F)c(-c3c(F)cc(C4CCS(=O)(=O)CC4)cc3F)n2)C[C@@H](N)[C@H]1O [Example 205, N-(4-((1R,3R,4S,5S)-3-amino-4-hydroxy-5-methylcyclohexyl)pyridin-3-yl)-6-(4-(1,1-dioxidotetrahydro-2H-thiopyran-4-yl)-2,6-difluorophenyl)-5-fluoropicolinamide]	1.07	1.52	1380	0.02
C[C@@H]1C[C@H](N)C[C@H](c2ccncc2NC(=O)c2ccc(F)c(-c3c(F)cc(O[C@@H]4CCCOC4)cc3F)n2)C1 [Example 77, N-(4-((1R,3S,5S)-3-amino-5-methylcyclohexyl)pyridin-3-yl)-6-(2,6-difluoro-4-((R)-tetrahydro-2H-pyran-3-yloxy)phenyl)-5-fluoropicolinamide]	1.12	1.84	48	0.02

Now those with a lower IC50 [1], led by results:

IC50 [1] [nM]	IC50 [2] [nM]	EC50 [3] [nM]	IC50 [4] [nM]	Compound
0.37	0.94	11	0.03	C[C@H]1CN(c2ccncc2NC(=O)c2ccc(F)c(-c3c(F)cc([S@+](C)[O-])cc3F)n2)C[C@@H](N)[C@@H]1O [Example 25, N-(4-((3R,4R,5S)-3-amino-4-hydroxy-5-methylpiperidin-1-yl)pyridin-3-yl)-6-(2,6-difluoro-4-((S)-methylsulfinyl)phenyl)-5-fluoropicolinamide]
0.36	0.63	153	0.01	CC(C)[C@@H]1C[C@H](N)C[C@H](c2ccncc2NC(=O)c2ccc(F)c(-c3c(F)cc(C4CCOCC4)cc3F)n2)C1 [Example 139, N-(4-((1R,3S,5S)-3-amino-5-isopropylcyclohexyl)pyridin-3-yl)-6-(2,6-difluoro-4-(tetrahydro-2H-pyran-4-yl)phenyl)-5-fluoropicolinamide]
0.58	0.8	59	0.02	Cc1cc(F)c(-c2nc(C(=O)Nc3cnccc3[C@H]3C[C@@H](N)C[C@@H](C(C)C)C3)ccc2F)c(F)c1 [Example 123, N-(4-((1R,3S,5S)-3-amino-5-isopropylcyclohexyl)pyridin-3-yl)-6-(2,6-difluoro-4-methylphenyl)-5-fluoropicolinamide]
0.13	1.23	96	0.01	C[C@@H]1C[C@H](N)C[C@H](c2ccncc2NC(=O)c2ccc(F)c(-c3c(F)cc([C@H]4CCOC4)cc3F)n2)C1 [Example 207, N-(4-((1R,3S,5S)-3-amino-5-methylcyclohexyl)pyridin-3-yl)-6-(2,6-difluoro-4-((R)-tetrahydrofuran-3-yl)phenyl)-5-fluoropicolinamide]
0.22	0.91	17	0.01	C[C@@H]1C[C@H](N)C[C@H](c2ccncc2NC(=O)c2nc(-c3c(F)cc(OC4CCOCC4)cc3F)c(F)cc2N)C1 [Example 86, 3-amino-N-(4-((1R,3S,5S)-3-amino-5-methylcyclohexyl)pyridin-3-yl)-6-(2,6-difluoro-4-(tetrahydro-2H-pyran-4-yloxy)phenyl)-5-fluoropicolinamide]
0.97	2.21	48	0.02	C[C@@H]1C[C@H](N)C[C@H](c2ccncc2NC(=O)c2ccc(F)c(-c3c(F)cc(OC4CCOC4)cc3F)n2)C1 (stereo in doubt) [Example 71, N-(4-((1R,3S,5S)-3-amino-5-methylcyclohexyl)pyridin-3-yl)-6-(2,6-difluoro-4-((R)-tetrahydrofuran-3-yloxy)phenyl)-5-fluoropicolinamide]
0.93	3.54	161	0.03	COCCCOc1cc(F)c(-c2nc(C(=O)Nc3cnccc3[C@H]3C[C@@H](N)[C@H](O)[C@@H](C)C3)ccc2F)c(F)c1 [Example 184, N-(4-((1R,3R,4R,5S)-3-amino-4-hydroxy-5-methylcyclohexyl)pyridin-3-yl)-6-(2,6-difluoro-4-(3-methoxypropoxy)phenyl)-5-fluoropicolinamide]
0.95	4.96	126	0.03	C[C@@H]1C[C@H](N)C[C@H](c2ccncc2NC(=O)c2ccc(F)c(-c3c(F)ccc(OC[C@@H](O)CO)c3F)n2)C1 [Example 10, N-(4-((1R,3S,5S)-3-amino-5-methylcyclohexyl)pyridin-3-yl)-6-(3-((S)-2,3-dihydroxypropoxy)-2,6-difluorophenyl)-5-fluoropicolinamide]
0.82	2.58	26	0.03	C[C@@H]1C[C@H](N)C[C@H](c2ccncc2NC(=O)c2ccc(F)c(-c3c(F)cc(OCCO)cc3F)n2)C1 [Example 229, N-(4-((1R,3S,5S)-3-amino-5-methylcyclohexyl)pyridin-3-yl)-6-(2,6-difluoro-4-(2-hydroxyethoxy)phenyl)-5-fluoropicolinamide]
0.95	1.36	52	0.02	C[C@@H]1C[C@H](N)C[C@H](c2ccncc2NC(=O)c2ccc(F)c(-c3c(F)cc(N4CCOCC4)cc3F)n2)C1 [Example 168, N-(4-((1R,3S,5S)-3-amino-5-methylcyclohexyl)pyridin-3-yl)-6-(2,6-difluoro-4-morpholinophenyl)-5-fluoropicolinamide]
0.52	1.48	29	0.02	C[C@@H]1C[C@H](N)C[C@H](c2ccncc2NC(=O)c2ccc(F)c(-c3c(F)cc(CC(C)(C)O)cc3F)n2)C1 [Example 84, N-(4-((1R,3S,5S)-3-amino-5-methylcyclohexyl)pyridin-3-yl)-6-(2,6-difluoro-4-(2-hydroxy-2-methylpropyl)phenyl)-5-fluoropicolinamide]
0.37	1.07	32	0.03	COc1ccc(F)c(-c2nc(C(=O)Nc3cnccc3N3C[C@@H](N)[C@H](O)[C@@H](C)C3)ccc2F)c1F [Example 214, N-(4-((3R,4R,5S)-3-amino-4-hydroxy-5-methylpiperidin-1-yl)pyridin-3-yl)-6-(2,6-difluoro-3-methoxyphenyl)-5-fluoropicolinamide]
0.62	1.55	44	0.02	CC(C)Oc1cc(F)c(-c2nc(C(=O)Nc3cnccc3[C@@H]3C[C@H](C)C[C@H](N)C3)ccc2F)c(F)c1 [Example 75, N-(4-((1R,3S,5S)-3-amino-5-methylcyclohexyl)pyridin-3-yl)-6-(2,6-difluoro-4-isopropoxyphenyl)-5-fluoropicolinamide]
